Results taken from ChEMBL document CHEMBL5291721, “A preclinical secondary pharmacology resource illuminates target-adverse drug reaction associations of marketed drugs” (Nat Commun, 2023).

Columns and labels:
[1] = molecular target: T1, Alpha-1A adrenergic receptor (Homo sapiens, UniProt P35348); type: functional, cell-based
T1 sequence (P35348 whole entry): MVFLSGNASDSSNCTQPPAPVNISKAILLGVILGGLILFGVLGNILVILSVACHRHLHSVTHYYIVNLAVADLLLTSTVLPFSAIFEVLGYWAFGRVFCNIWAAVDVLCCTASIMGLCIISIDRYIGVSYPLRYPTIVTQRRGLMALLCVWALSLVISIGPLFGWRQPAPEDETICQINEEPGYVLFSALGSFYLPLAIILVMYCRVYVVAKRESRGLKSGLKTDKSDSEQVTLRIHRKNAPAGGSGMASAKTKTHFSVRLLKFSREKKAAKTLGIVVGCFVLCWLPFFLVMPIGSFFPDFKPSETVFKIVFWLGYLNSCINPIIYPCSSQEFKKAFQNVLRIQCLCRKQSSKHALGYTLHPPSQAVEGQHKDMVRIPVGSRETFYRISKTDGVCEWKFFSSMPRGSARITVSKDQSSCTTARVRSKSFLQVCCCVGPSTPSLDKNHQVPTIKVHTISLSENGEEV

[2] = molecular target: T2, Alpha-2A adrenergic receptor (Homo sapiens, UniProt P08913)
T2 sequence (P08913 whole entry): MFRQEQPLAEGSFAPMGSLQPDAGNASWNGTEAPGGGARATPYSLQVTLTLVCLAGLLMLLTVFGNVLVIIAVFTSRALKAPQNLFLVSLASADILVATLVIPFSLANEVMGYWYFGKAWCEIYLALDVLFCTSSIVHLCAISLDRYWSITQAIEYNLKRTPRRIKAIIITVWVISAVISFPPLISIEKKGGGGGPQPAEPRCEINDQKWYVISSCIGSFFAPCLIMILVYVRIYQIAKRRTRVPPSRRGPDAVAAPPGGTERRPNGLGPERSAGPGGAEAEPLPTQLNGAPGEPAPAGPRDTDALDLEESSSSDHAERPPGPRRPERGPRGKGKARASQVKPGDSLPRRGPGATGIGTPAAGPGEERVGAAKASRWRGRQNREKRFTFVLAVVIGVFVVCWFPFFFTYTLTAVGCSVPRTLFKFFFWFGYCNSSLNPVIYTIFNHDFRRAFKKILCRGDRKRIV

Estrogen receptor = molecular target: T3, Estrogen receptor (Homo sapiens, UniProt P03372)
T3 sequence (P03372 whole entry): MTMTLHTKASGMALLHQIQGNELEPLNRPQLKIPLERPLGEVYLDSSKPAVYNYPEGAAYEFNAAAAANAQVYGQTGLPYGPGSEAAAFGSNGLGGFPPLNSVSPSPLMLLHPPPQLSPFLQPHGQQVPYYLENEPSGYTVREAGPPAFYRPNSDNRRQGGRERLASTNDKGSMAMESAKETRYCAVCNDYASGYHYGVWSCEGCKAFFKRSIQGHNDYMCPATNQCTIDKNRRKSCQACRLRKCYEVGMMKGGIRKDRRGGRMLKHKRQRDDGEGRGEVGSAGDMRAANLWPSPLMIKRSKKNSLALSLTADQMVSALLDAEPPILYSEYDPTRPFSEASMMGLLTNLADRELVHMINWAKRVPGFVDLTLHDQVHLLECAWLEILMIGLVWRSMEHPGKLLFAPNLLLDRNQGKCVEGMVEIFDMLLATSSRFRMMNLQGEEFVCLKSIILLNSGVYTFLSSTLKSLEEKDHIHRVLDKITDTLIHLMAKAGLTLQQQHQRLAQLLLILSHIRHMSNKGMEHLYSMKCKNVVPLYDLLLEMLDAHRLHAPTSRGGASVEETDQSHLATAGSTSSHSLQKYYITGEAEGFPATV

[3] = molecular target: T4, 5-hydroxytryptamine receptor 1A (Homo sapiens, UniProt P08908)
T4 sequence (P08908 whole entry): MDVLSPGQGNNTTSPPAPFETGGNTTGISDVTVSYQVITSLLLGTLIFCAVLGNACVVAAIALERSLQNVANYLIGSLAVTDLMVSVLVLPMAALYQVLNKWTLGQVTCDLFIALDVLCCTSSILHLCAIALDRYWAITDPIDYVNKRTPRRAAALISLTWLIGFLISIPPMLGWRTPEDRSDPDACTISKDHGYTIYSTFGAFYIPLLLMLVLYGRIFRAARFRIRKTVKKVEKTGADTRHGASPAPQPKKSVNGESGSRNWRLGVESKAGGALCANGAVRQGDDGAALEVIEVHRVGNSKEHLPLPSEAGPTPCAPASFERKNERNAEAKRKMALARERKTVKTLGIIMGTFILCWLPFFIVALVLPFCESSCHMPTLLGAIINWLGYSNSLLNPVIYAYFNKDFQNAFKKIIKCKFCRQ

[4] = molecular target: T5, Amine oxidase [flavin-containing] A (Homo sapiens, UniProt P21397); type: functional
T5 sequence (P21397 whole entry): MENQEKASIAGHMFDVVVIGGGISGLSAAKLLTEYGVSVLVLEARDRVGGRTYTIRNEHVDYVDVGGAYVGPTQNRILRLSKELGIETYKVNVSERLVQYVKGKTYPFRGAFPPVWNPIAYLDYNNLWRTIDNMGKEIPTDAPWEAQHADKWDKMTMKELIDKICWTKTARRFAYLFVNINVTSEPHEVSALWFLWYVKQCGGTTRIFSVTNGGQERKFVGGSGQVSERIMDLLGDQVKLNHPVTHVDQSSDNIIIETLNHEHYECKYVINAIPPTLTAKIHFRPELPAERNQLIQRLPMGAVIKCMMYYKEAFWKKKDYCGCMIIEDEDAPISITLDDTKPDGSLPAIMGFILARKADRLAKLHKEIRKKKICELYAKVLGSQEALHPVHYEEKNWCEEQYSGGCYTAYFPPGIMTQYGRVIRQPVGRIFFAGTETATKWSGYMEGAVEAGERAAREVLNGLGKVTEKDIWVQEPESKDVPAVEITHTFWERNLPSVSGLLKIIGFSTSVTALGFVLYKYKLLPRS

[5] = molecular target: cGMP-inhibited 3',5'-cyclic phosphodiesterase 3A (Homo sapiens, UniProt Q14432); type: functional
Chain of cGMP-inhibited 3',5'-cyclic phosphodiesterase 3A (Q14432 whole entry): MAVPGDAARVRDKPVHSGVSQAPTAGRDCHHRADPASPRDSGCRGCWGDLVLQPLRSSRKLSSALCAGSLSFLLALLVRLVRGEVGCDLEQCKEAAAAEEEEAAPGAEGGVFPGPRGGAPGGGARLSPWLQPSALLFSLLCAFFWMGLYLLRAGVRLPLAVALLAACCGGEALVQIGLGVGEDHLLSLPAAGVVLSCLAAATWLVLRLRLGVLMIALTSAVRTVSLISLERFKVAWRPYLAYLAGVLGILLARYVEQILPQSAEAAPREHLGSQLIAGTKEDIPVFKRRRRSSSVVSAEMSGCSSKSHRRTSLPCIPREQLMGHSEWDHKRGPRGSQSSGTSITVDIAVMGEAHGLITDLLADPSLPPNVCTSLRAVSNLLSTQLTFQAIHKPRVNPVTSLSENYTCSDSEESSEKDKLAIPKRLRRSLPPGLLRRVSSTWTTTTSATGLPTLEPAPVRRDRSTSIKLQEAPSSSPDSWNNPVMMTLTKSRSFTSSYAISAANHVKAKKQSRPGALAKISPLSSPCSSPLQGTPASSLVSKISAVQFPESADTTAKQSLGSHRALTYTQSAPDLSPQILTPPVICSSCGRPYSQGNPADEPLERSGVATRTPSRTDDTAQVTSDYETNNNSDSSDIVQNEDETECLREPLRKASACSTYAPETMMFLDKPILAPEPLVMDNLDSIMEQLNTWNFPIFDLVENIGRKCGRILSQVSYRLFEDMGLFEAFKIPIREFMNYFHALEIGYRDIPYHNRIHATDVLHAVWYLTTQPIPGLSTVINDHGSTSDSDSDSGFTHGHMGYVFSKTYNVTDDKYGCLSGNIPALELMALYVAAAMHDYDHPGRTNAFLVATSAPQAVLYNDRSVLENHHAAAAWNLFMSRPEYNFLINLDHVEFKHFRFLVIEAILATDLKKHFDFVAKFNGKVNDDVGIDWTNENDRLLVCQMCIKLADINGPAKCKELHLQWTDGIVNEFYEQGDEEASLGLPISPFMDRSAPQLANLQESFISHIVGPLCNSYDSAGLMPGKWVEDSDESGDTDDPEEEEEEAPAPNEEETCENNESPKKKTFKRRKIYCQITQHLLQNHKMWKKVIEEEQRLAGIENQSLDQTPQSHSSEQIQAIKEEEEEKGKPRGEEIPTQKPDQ

[6] = molecular target: 3',5'-cyclic-AMP phosphodiesterase 4A (Homo sapiens, UniProt P27815); type: functional
Chain of 3',5'-cyclic-AMP phosphodiesterase 4A (P27815 whole entry): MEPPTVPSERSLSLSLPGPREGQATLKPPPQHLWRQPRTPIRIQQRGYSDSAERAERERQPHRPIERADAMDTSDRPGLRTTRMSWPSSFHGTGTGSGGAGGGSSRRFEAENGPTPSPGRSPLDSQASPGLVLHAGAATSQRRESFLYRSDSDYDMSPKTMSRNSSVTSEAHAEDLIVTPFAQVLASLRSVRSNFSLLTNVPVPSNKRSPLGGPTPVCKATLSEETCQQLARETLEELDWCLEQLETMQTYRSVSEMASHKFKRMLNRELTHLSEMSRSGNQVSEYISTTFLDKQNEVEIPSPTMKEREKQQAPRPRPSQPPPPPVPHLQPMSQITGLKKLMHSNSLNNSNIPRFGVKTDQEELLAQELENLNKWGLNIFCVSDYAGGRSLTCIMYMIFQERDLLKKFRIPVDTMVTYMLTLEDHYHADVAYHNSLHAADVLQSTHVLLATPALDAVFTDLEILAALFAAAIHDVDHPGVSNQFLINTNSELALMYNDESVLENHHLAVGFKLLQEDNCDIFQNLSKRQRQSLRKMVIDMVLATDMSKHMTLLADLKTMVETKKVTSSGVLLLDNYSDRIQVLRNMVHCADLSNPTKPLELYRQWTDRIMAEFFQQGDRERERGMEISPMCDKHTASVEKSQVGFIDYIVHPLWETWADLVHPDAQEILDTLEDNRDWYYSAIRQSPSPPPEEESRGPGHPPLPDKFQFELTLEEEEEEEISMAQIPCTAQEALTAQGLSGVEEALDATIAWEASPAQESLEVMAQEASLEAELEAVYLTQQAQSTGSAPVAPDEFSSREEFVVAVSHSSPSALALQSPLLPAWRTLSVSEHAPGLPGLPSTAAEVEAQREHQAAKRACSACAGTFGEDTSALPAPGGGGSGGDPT

[7] = molecular target: Sodium-dependent noradrenaline transporter (Homo sapiens, UniProt P23975)
Chain of Sodium-dependent noradrenaline transporter (P23975 whole entry): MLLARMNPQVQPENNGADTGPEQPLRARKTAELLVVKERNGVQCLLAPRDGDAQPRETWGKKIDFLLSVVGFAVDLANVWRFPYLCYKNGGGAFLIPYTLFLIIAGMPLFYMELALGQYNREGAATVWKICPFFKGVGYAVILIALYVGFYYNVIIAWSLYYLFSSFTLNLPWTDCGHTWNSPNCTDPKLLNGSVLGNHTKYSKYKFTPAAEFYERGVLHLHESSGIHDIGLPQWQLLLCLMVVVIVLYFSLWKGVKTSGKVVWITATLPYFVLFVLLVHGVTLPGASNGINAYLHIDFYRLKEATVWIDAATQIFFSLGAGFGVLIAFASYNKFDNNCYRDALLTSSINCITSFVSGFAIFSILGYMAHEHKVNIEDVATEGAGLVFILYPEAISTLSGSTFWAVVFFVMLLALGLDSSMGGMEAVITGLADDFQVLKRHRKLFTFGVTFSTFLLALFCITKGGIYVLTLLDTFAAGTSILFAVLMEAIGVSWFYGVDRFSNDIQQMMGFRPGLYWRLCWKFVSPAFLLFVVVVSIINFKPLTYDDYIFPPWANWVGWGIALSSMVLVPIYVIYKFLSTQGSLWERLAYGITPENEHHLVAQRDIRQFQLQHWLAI
Further: assay procedure not described here.

Compound	AC50 [1] [µM]	AC50 [2] [µM]	AC50 (Estrogen receptor) [µM]	AC50 [3] [µM]	AC50 [4] [µM]	AC50 [5] [µM]	AC50 [6] [µM]	AC50 [7] [µM]
CCC(Cc1c(I)cc(I)c(N)c1I)C(=O)O (stereo not given) [IOPANOIC ACID]	> 30	> 30	> 30	> 30	> 30	> 30	12.2	> 30
COc1cc(NCc2ccc3nc(N)nc(N)c3c2C)cc(OC)c1OC [TRIMETREXATE]	> 30	> 30	23	8.06	3.8	11.9	7.19	12.3
Nc1nc(-n2cc(C(=O)O)c(=O)c3cc(F)c(N4CC(O)C4)c(Cl)c32)c(F)cc1F [DELAFLOXACIN]	> 30	> 30	> 30	> 30	> 30	> 30	> 30	> 30
CC(=O)OC(C)C[N+](C)(C)C (stereo not given) [METHACHOLINE]	> 30	> 30	> 30	> 30	> 30	> 30	> 30	> 30
CN1CCC2=C(C1)c1ccccc1Cc1ccccc12 [SETIPTILINE]	> 30	0.0996	> 30	0.154	> 30	> 30	> 30	3.52
O=C1CN=C(c2ccccc2)c2c(sc3c2CCCC3)N1 [BENTAZEPAM]	> 30	23.9	> 30	1.55	> 30	> 30	15.7	> 30
CN1CCN(C(c2ccccc2)c2ccccc2)CC1 [CYCLIZINE]	> 30	3.47	> 30	> 30	> 30	> 30	> 30	> 30
CCOC(=O)C(c1c(O)c2ccccc2oc1=O)c1c(O)c2ccccc2oc1=O [ETHYL BISCOUMACETATE]	> 30	> 30	> 30	> 30	> 30	> 30	> 30	> 30
C[C@@H]1C[C@H]2[C@@H]3C[C@H](F)C4=CC(=O)C=C[C@]4(C)[C@@]3(F)[C@@H](O)C[C@]2(C)[C@@]1(O)C(=O)COC(=O)C(C)(C)C [FLUMETHASONE PIVALATE]	> 30	> 30	> 30	> 30	> 30	> 30	> 30	> 30
CCOc1ccc(/C=C2\NCCc3cc(OCC)c(OCC)cc32)cc1OCC [DROTAVERINE]	> 30	5.83	> 30	> 30	> 30	> 30	1.68	> 30
